Test results: PubChem BioAssay (NCI)
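Cells were grown in 96-well plates and exposed to each compound for 48 hours at five concentrations; endpoints were interpolated linearly between bracketing concentrations, or set to the highest concentration if not reached. GI50: concentration for 50% inhibition of growth. Definition used: TGI = concentration required for complete inhibition of growth.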

How the values were obtained:
Test in all cases: NCI tumour cell line growth inhibition, 48 h
786-0 renal = system: 786-0 renal
DU-145 prostate = system: DU-145 prostate
EKVX NSCLC = system: EKVX NSCLC
MDA-MB-231 breast = system: MDA-MB-231 breast
TK-10 renal = system: TK-10 renal
MDA-N = system: MDA-N
DLD-1 colon = system: DLD-1 colon
DMS 114 small cell lung = system: DMS 114 small cell lung
DMS 273 small cell lung = system: DMS 273 small cell lung
HOP-18 NSCLC = system: HOP-18 NSCLC
KM20L2 colon = system: KM20L2 colon
M19-MEL melanoma = system: M19-MEL melanoma
P388 leukemia = system: P388 leukemia
P388/ADR leukemia = system: P388/ADR leukemia
SN12K1 renal = system: SN12K1 renal
SNB-78 CNS = system: SNB-78 CNS
XF 498 CNS = system: XF 498 CNS
LXFL 529 NSCLC = system: LXFL 529 NSCLC

Structure (SMILES)	TGI (786-0 renal)	TGI (DU-145 prostate)	TGI (EKVX NSCLC)	TGI (MDA-MB-231 breast)	TGI (TK-10 renal)	TGI (MDA-N)	other results
Cc1nc(Nc2ccc(F)cc2)c2sc(=S)n(-c3ccc(F)cc3)c2n1	21.6 µM	26.2 µM	26.2 µM	26.9 µM	27.5 µM		
Nc1ccc(C2NC(=O)Cc3c2ccc2ccccc32)cc1 (stereo not drawn)		> 100 µM	> 100 µM		> 100 µM	> 100 µM	
CCCCNc1c(CN)cnc2cc(Cl)ccc12	40.2 µM	86.8 µM	17.1 µM	30 µM	30.2 µM	39.3 µM	
Nc1ccc2nc3ccc(N)cc3[n+](-c3ccccc3)c2c1	> 100 µM	> 100 µM	> 100 µM	> 100 µM	> 100 µM	> 100 µM	
O=C(O)CSCC(=O)O	> 100 µM	> 100 µM	> 100 µM	> 100 µM	> 100 µM	> 100 µM	
c1ccc(C(c2ccccc2)[P+](c2ccccc2)(c2ccccc2)c2ccccc2)cc1			50.4 µM				TGI (DLD-1 colon): 14.2 µM; TGI (DMS 114 small cell lung): 2.73 µM; TGI (DMS 273 small cell lung): 2.17 µM; TGI (HOP-18 NSCLC): 2.74 µM; TGI (KM20L2 colon): 11.8 µM; TGI (M19-MEL melanoma): 9.69 µM; TGI (P388 leukemia): 1.89 µM; TGI (P388/ADR leukemia): 31.8 µM; TGI (SN12K1 renal): 12.3 µM; TGI (SNB-78 CNS): 12.9 µM; TGI (XF 498 CNS): 0.737 µM
CC(=O)Oc1ccc2c(C)cc(=O)oc2c1	> 100 µM	> 100 µM	> 100 µM	> 100 µM	> 100 µM	> 100 µM	
Cc1ccc2cc3c(ccc4ccccc43)c3c2c1CC3	> 100 µM	> 100 µM	> 100 µM	> 100 µM	> 100 µM	> 100 µM	
COc1ccc2oc(=O)cc(C)c2c1	> 100 µM	> 100 µM	> 100 µM	> 100 µM	> 100 µM	> 100 µM	
CS/C(=N\C(=S)Nc1ccccc1)Nc1ccccc1					54.7 µM		TGI (DMS 114 small cell lung): 52.6 µM; TGI (KM20L2 colon): > 100 µM; TGI (M19-MEL melanoma): 81 µM; TGI (SNB-78 CNS): > 100 µM
N=C(N)C(N=Nc1ccccc1)C(N)=O (stereo not drawn)	> 100 µM	> 100 µM	> 100 µM	> 100 µM	> 100 µM	> 100 µM	
FC(F)(F)C(C1=NC(C(F)(F)F)(C(F)(F)F)N=C(N2CCOCC2)O1)C(F)(F)F		> 100 µM	61.3 µM	36.1 µM	83.6 µM	53.8 µM	
COc1ccc(C2C(=O)C(Cl)N2Nc2nc(C)cc(=O)[nH]2)cc1OC (stereo not drawn)			> 100 µM		> 100 µM		TGI (DMS 273 small cell lung): 84.3 µM; TGI (HOP-18 NSCLC): 53.7 µM; TGI (KM20L2 colon): > 100 µM; TGI (LXFL 529 NSCLC): > 100 µM; TGI (M19-MEL melanoma): > 100 µM; TGI (SNB-78 CNS): > 100 µM
C=CC(=O)N1CCN(c2nc(OC[C@@H]3CCCN3C)nc3c2CCN(c2cccc4cccc(C)c24)C3)C[C@@H]1CC#N				2.78 µM			GI50 (MDA-MB-231 breast): 1.39 µM
NC(=O)NO	1770 µM	> 2500 µM	> 2460 µM	> 1410 µM	> 2500 µM	> 2500 µM	TGI (DLD-1 colon): > 2500 µM; TGI (DMS 273 small cell lung): 1360 µM; GI50 (HOP-18 NSCLC): 1130 µM; TGI (HOP-18 NSCLC): 1940 µM; TGI (KM20L2 colon): 1700 µM; TGI (LXFL 529 NSCLC): > 2320 µM; TGI (M19-MEL melanoma): > 2450 µM; TGI (P388 leukemia): 548 µM; TGI (P388/ADR leukemia): 502 µM; TGI (SN12K1 renal): 1890 µM; TGI (SNB-78 CNS): > 2500 µM; TGI (XF 498 CNS): 1850 µM
COc1ccccc1N1C(Cl)C(=O)C1c1c[nH]c2ccccc12 (stereo not drawn)			> 100 µM		> 100 µM		TGI (DMS 114 small cell lung): > 100 µM; TGI (KM20L2 colon): > 100 µM; TGI (LXFL 529 NSCLC): > 100 µM; TGI (M19-MEL melanoma): > 100 µM; TGI (XF 498 CNS): > 100 µM
O=C(O)C(O)Cc1ccccn1 (stereo not drawn)		> 100 µM	> 100 µM	> 100 µM	> 100 µM		
CN(C)CCCNc1ncnc2nc[nH]c12	> 100 µM	> 100 µM	> 100 µM	> 100 µM	> 100 µM	> 100 µM	
COc1cccc(Nc2nc(-c3cccs3)nc3ccc(Br)cc23)c1	> 100 µM	> 100 µM	> 100 µM	> 100 µM	> 100 µM		
